In ChEMBL document CHEMBL1128635, “Structure-activity studies of the natural product substance P antagonist win 64821” (Bioorg Med Chem Lett, 1995):

Target: Substance-P receptor (Homo sapiens, UniProt P25103)
Test: Antagonistic activity against Tachykinin receptor 1
Type: functional

Chain of Substance-P receptor (P25103 whole entry): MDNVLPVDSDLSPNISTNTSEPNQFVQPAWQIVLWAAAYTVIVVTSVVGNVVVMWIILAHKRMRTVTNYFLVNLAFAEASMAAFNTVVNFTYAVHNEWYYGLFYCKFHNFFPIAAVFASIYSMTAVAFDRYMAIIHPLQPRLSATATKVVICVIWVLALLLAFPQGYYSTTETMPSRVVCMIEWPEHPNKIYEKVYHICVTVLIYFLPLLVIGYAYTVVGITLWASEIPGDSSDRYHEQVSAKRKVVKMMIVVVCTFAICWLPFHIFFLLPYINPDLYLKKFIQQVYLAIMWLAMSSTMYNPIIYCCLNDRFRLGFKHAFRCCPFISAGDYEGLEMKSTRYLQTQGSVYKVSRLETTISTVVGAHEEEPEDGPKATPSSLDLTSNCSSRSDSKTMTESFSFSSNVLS

Row | Compound | IC50
1 | O=C1N[C@@H](Cc2ccccc2)C(=O)N2[C@H]3Nc4ccccc4[C@@]3(O)C[C@@H]12 | > 100 µM
2 | O=C1N[C@@H](Cc2ccccc2)C(=O)N2[C@H]3Nc4ccccc4C3(C34C[C@H]5C(=O)N[C@@H](Cc6ccccc6)C(=O)N5[C@H]3Nc3ccccc34)C[C@@H]12 (stereo partly drawn) | 0.24 µM
3 | Cc1cccc2c1C1(C34C[C@H]5C(=O)N[C@@H](Cc6ccccc6)C(=O)N5[C@H]3Nc3cccc(C)c34)C[C@H]3C(=O)N[C@@H](Cc4ccccc4)C(=O)N3[C@H]1N2 (stereo partly drawn) | 5.7 µM
4 | O=C1N[C@@H](Cc2ccccc2)C(=O)N2[C@H]1C[C@@]1(Cc3cc([N+](=O)[O-])ccc3O)c3ccccc3N[C@@H]21 | 98 µM
5 | COc1ccc(N)cc1C[C@]12C[C@H]3C(=O)N[C@@H](Cc4ccccc4)C(=O)N3[C@H]1Nc1ccccc12 | 26 µM
6 | COc1ccc([N+](=O)[O-])cc1C[C@@]12C[C@H]3C(=O)N[C@@H](Cc4ccccc4)C(=O)N3[C@@H]1Nc1ccccc12 | 88 µM
7 | COc1ccc(N)cc1C[C@@]12C[C@H]3C(=O)N[C@@H](Cc4ccccc4)C(=O)N3[C@@H]1Nc1ccccc12 | 38 µM
8 | COc1ccc([N+](=O)[O-])cc1C[C@]12C[C@H]3C(=O)N[C@@H](Cc4ccccc4)C(=O)N3[C@H]1Nc1ccccc12 | 54 µM
9 | O=C1N[C@@H](Cc2ccccc2)C(=O)N2[C@H]3Nc4ccccc4[C@@]3(Cc3cc([N+](=O)[O-])ccc3O)C[C@@H]12 | 48 µM
10 | O=C1N[C@@H](Cc2ccccc2)C(=O)N2[C@H]1C[C@@]1(O)c3ccccc3N[C@@H]21 | > 100 µM
11 | Cc1cccc2c1C1(C34C[C@H]5C(=O)N[C@@H](Cc6ccccc6)C(=O)N5[C@H]3Nc3ccccc34)C[C@H]3C(=O)N[C@@H](Cc4ccccc4)C(=O)N3[C@H]1N2 (stereo partly drawn) | 0.44 µM
12 | O=C1[C@@H]2C[C@@]3(Cc4cc([N+](=O)[O-])ccc4O)c4ccccc4N[C@H]3N2C(=O)[C@H](Cc2ccccc2)N1Cc1cc([N+](=O)[O-])ccc1O | > 100 µM
13 | O=C1[C@@H]2C[C@]3(Cc4cc([N+](=O)[O-])ccc4O)c4ccccc4N[C@@H]3N2C(=O)[C@H](Cc2ccccc2)N1Cc1cc([N+](=O)[O-])ccc1O | > 100 µM
